# Experimental data reported in article PMC12196235, “Enhancing the Pharmacological Properties of Triterpenes Through Acetylation: An Anticancer and Antioxidant Perspective” (Molecules, 2025).
# Values joined by “and” are separate entries in the source; they are usually repeats but may differ in a detail not shown here. Equal values may be shown once. Read-outs that look alike come from different tables or passages of the source.
# Experiments:
# [1] = tested on: KB (human oral squamous carcinoma); conditions: ref 104; cited from earlier work
# [2] = tested on: RAW 264.7; conditions: ref 106; cited from earlier work
# [3] = tested on: MCF-7 (human breast carcinoma); experiment: MTT assay, MCF-7; type: cell-based; conditions: for IC50: Homo sapiens, MCF7, MTT assay, MCF-7, read-out: IC50 (±SD), MCF-7; for Selectivity index (SI), MCF-7: IC50 HDF / IC50 MCF-7
# Method: (§1) All the cell lines and mediums were obtained from the American Type Culture Collection (ATCC) supplied by LGC-Standards (Lomianki, Poland). Human cancer cell lines were cultured as follows: HeLa (human cervix carcinoma) and KB (human oral squamous carcinoma) lines were cultured in DMEM (Dulbecco’s Modified Eagle’s Medium); MCF-7 (human breast carcinoma) and A-549 (human lung carcinoma) were cultured in RPMI 1640 medium; PC-3 (human prostate carcinoma) was cultured in F-12K medium; SKOV-3 (human ovarian cystadenocarcinoma) was cultured in McCoy’s modified medium; HDF (human normal dermal fibroblasts) was cultured in Fibroblast Basal Medium. Each medium was supplemented with 10% fetal bovine serum, 1% L- glutamine and 1% penicillin/streptomycin solution. The cell lines were kept in an incubator at 37 °C.
# (§2) All the tested cell lines (HeLa, KB, MCF-7, A-549, PC-3, SKOV-3 and HDF) were subjected to MTT assay. In short, this assay is based on the reaction between mitochondria enzymes (dehydrogenases) of tested cell lines and 3-(4,5-dimethylthiazol-2-yl)-2,5-diphenyltetrazolium bromide (MTT). The final product of this reaction gives violet formazan crystals. The number of live cells is proportional to the amount of formazan and is represented by the violet dye reagent. The details of the experiments are given in [19].
# [4] = tested on: HeLa (human cervical epithelioid carcinoma); experiment: MTT assay, HeLa; type: cell-based; conditions: for IC50: Homo sapiens, MTT assay, HeLa, read-out: IC50 (±SD), HeLa; for Selectivity index (SI), HeLa: IC50 HDF / IC50 HeLa
# Method: as §1, §2
# [5] = tested on: J774A.1 (macrophage-like cell line); conditions: ref 106; cited from earlier work
# [6] = DPPH antioxidant assay; conditions: calculated from Trolox standard curve
# Method: (§3) The results are presented as % inhibition of the copper(II) ions and Trolox equivalent calculated from the standard curve (Figure 9) and as % inhibition of the DPPH radical and Trolox equivalent, calculated from the standard curve (Figure 10).
# (§4) The CUPRAC reagent (7.5 mM ethanolic 96% neocuproine solution, 10 mM CuCl2 × H2O solution and an ammonium acetate buffer of pH 7.0) and DPPH reagent (2,2-diphenyl-1-picrylhydrazyl 0.2 mM solution) were applied.
# (§5) The CUPRAC method measures the reducing power of a sample by quantifying its ability to convert the Cu-neocuproine reagent complex to the Cu(I) form. In contrast, the DPPH assay relies on the ability of an antioxidant to donate a hydrogen atom or an electron to the stable DPPH radical, resulting in its reduction and subsequent color change. The results are presented as % inhibition of the copper(II) ions and Trolox equivalent calculated from the standard curve (Figure 9) and as % inhibition of the DPPH radical and Trolox equivalent, calculated from the standard curve (Figure 10). The spectroscopic detection in CUPRAC and DPPH assays was conducted with Synergy H1 Multi-Mode Microplate Reader (BioTek Instruments, Inc., Winooski, VT, USA). The details of the experiments are given in [102].
# [7] = tested on: Hep-G2 (human hepatocellular carcinoma); conditions: cited from earlier work
# [8] = tested on: KB-VIN (multidrug resistant human epidermoid carcinoma); conditions: ref 104; cited from earlier work
# [9] = tested on: SKOV-3 (human ovarian carcinoma); experiment: MTT assay, SKOV-3; type: cell-based; conditions: for IC50: Homo sapiens, SK-OV-3, MTT assay, SKOV-3, read-out: IC50 (±SD), SKOV-3; for Selectivity index (SI), SKOV-3: IC50 HDF / IC50 SKOV-3
# Method: as §1, §2
# [10] = tested on: HDF (human dermal fibroblasts); experiment: MTT assay, normal HDF; type: cell-based; conditions: Homo sapiens, Fibroblast, read-out: IC50 (±SD), HDF
# Method: as §1, §2
# [11] = tested on: A-549 (human lung carcinoma); experiment: MTT assay, A-549; type: cell-based; conditions: for IC50: Homo sapiens, A549, MTT assay, A-549, read-out: IC50 (±SD), A-549; for Selectivity index (SI), A-549: IC50 HDF / IC50 A-549
# Method: as §1, §2
# [12] = tested on: KB (human oral squamous carcinoma); experiment: MTT assay, KB; type: cell-based; conditions: for IC50: Homo sapiens, MTT assay, KB; for Selectivity index (SI), KB: IC50 HDF / IC50 KB
# Method: as §1, §2
# [13] = tested on: PC-3; experiment: Apoptosis assay (Cell Death Detection ELISA Plus), PC-3; type: cell-based, human; conditions: PC-3, 4 h incubation, enrichment of mono- and oligonucleosomes vs negative control
# Method: (§6) The induction of apoptosis by tested compounds was determined with Cell Death Detection ELISA Plus from Roche Diagnostics GmbH (Mannheim, Germany).
# (§7) Cell Death Detection ELISA Plus is an enzyme immunoassay for determining cytoplasmic histone-associated DNA fragments (mono- and […]) after induced cell death. Cells (10^4) were pipetted into wells of 96-well plates, and test compounds were added at final concentrations of 0.1, 1.0 and 10.0 µg × mL^−1. Cells incubated in the absence of test compounds served as negative controls. After 4 h of incubation, cells were harvested by centrifugation of the plates for 10 min at 200× g. Supernatants were removed carefully, and cell pellets were resuspended in 200 µL of cell lysis buffer and incubated for 30 min at room temperature. After centrifugation of the plates (10 min at 200× g), 20 µL of cell lysates was transferred in duplicate into wells of provided streptavidin-coated microplates. Then, 80 µL of the immunoreagent containing a mixture of anti-histone-biotin monoclonal antibody and anti-DNA-peroxidase monoclonal antibody was added to each well. The microplates were covered with a provided adhesive foil and incubated for 2 h at room temperature. Thereafter, the solution in the wells was removed by tapping the microplate. The wells were rinsed three times with incubation buffer, and 100 µL of substrate (2,2′-azino-bis [3-ethylbenzothiazoline-6-sulphonic acid], ABTS) was added to each well. After 10–20 min, 100 µL of ABTS stop solution was pipetted to each well, and the absorbance was read at 405 nm (test wavelength) and 490 nm (reference wavelength). The apoptotic index was calculated based on the enrichment of mono- and oligonucleosomes according to the following equation:apoptotic index = [{A405(sample) − A490(sample)}/{A405(negative control) − A490(negative control)}]
# [14] = tested on: SKOV-3; experiment: Apoptosis assay (Cell Death Detection ELISA Plus), SKOV-3; type: cell-based, human; conditions: SKOV-3, 4 h incubation, enrichment of mono- and oligonucleosomes vs negative control
# Method: as §6, §7
# [15] = tested on: PC-3 (human prostate carcinoma); experiment: MTT assay, PC-3; type: cell-based; conditions: for IC50: Homo sapiens, MTT assay, PC-3, read-out: IC50 (±SD), PC-3; for Selectivity index (SI), PC-3: IC50 HDF / IC50 PC-3
# Method: as §1, §2
# [16] = tested on: HT-29 (human colorectal adenocarcinoma); conditions: cited from earlier work
# [17] = tested on: B16-F10 (murine melanoma); conditions: cited from earlier work
# [18] = tested on: HeLa, KB, MCF-7, A-549, PC-3 and SKOV-3; experiment: MTT assay, summary over the cancer cell lines; type: cell-based, human; conditions: for cytotoxic activity class: classification by IC50 (good ≤ 10 μM, moderate 10–30 μM, ref 83)
# Method: as §1, §2
# [19] = CUPRAC antioxidant assay; conditions: calculated from Trolox standard curve
# Method: as §3, §4, §5
# [20] = tested on: A-549 (human lung carcinoma); conditions: cited from earlier work
# [21] = tested on: CCRF-CEM, CEM (human T lymphoblastic leukemia); conditions: ref 26; read-out: anticancer IC50 (CCRF-CEM, CEM); cited from earlier work
# [22] = tested on: SMMC-7721 (human hepatocarcinoma); parameters: method as in PMID 35897914; conditions: ref 27; read-out: anticancer IC50 (SMMC-7721); cited from earlier work
# [23] = tested on: SW-480 (human colon adenocarcinoma); parameters: method as in PMID 28981110; conditions: ref 38; read-out: anticancer IC50 (SW-480); cited from earlier work
# [24] = tested on: A-2780 (human ovarian carcinoma); parameters: method as in PMID 31277238; conditions: ref 40; read-out: anticancer IC50 (A-2780); cited from earlier work
# [25] = tested on: HCV (Hepatitis C virus); parameters: method as in PMID 26102077; conditions: ref 32; read-out: antiviral EC50 (HCV); cited from earlier work
# [26] = tested on: NOZ (human gall bladder carcinoma); parameters: method as in PMID 31915810; conditions: ref 39; read-out: anticancer IC50 (NOZ); cited from earlier work
# [27] = tested on: HCT-116 (human colorectal carcinoma); conditions: ref 38; read-out: anticancer IC50 (HCT-116); cited from earlier work
Structure (SMILES),IC50 [3] [µM],"Selectivity index (SI), MCF-7 [3]",IC50 [4] [µM],"Selectivity index (SI), HeLa [4]","Trolox Equivalent, DPPH Assay [6]",IC50 [9] [µM],"Selectivity index (SI), SKOV-3 [9]",IC50 [10] [µM],IC50 [11] [µM],"Selectivity index (SI), A-549 [11]",IC50 [12] [µM],"Selectivity index (SI), KB [12]",IC50 [15] [µM],"Selectivity index (SI), PC-3 [15]",cytotoxic activity class [18],"Trolox Equivalent, CUPRAC Assay [19]",IC50 [21] [µM],other results
"CC(=O)O[C@H]1CC[C@]2(C)[C@H]3CC=C4[C@@H]5CC(C)(C)CC[C@]5(C(=O)O)CC[C@@]4(C)[C@]3(C)CC[C@H]2C1(C)C [1b, 3-O-Acetyloleanolic acid]",1.86,0.10,0.24,0.79,0.0143 ± 0.000592 mg/mL,0.09,2.11,0.19,0.24,0.79,0.36,0.53,0.11,1.73,very high cytotoxic activity,0.2199 mg/mL and 0.2199 ± 0.00657 mg/mL,–,"IC50 [1]: 7.6 µM; IC50 [2]: 13.8 µM; IC50 [5]: 16.8 µM; IC50 ([7]; ref 105, read-out: IC50 (Hep-G2)): 104 µM; IC50 [8]: 7.6 µM; Apoptotic index (AI), PC-3 [13]: 6.90 (0.04); Apoptotic index (AI), SKOV-3 [14]: 6.79 (0.16); IC50 ([16]; ref 105, read-out: IC50 (HT-29)): 148 µM; IC50 ([17]; ref 105): 64.7 µM; IC50 ([17]; ref 107): 64.7 µM; IC50 ([20]; ref 104, read-out: IC50 (A-549)): 5.8 µM"
"CC1(C)CC[C@]2(CO)CC[C@]3(C)C(=CC[C@@H]4[C@@]5(C)CC[C@H](O)C(C)(C)[C@@H]5CC[C@]43C)[C@@H]2C1 [2a, erythrodiol]",65.5,0.43,54.3,–,0.02092 mg/mL and 0.02092 ± 0.000866 mg/mL,18.3,1.53,28,63.7,0.44,66,0.42,21.1,1.32,–,0.09414 mg/mL and 0.09414 ± 0.0095 mg/mL,250,"IC50 ([7]; ref 24, read-out: anticancer IC50 (Hep-G2)): 27.3 µM; IC50 ([7]; ref 27, read-out: anticancer IC50 (Hep-G2)): 87.7 µM; IC50 [22]: 65 µM; EC50 ([16]; ref 25, read-out: anticancer EC50 (HT-29)): 48.8 µM; times less active than oleanolic acid 1a ([18]; HeLa, KB, MCF-7 and A-459 cell lines): 4.4–7.2 times; IC50 ([20]; cell line printed as A-459, read-out: anticancer IC50 (A-459)): 63 µM"
"C=C(C)[C@@H]1CC[C@]2(C(=O)O)CC[C@]3(C)[C@H](CC[C@@H]4[C@@]5(C)CC[C@H](O)C(C)(C)[C@@H]5CC[C@]43C)[C@@H]12 [4a, betulinic acid]",27.9,0.71,27.5,0.72,0.01526 ± 0.000632 mg/mL,9.52,2.09,19.9,26.2,0.76,35.2,0.56,10.6,1.88,high or moderately high activity,0.07632 ± 0.00727 mg/mL,30,"IC50 [23]: 58 µM; IC50 [24]: 44.5 µM; EC50 [25]: 11.2 µM; IC50 [26]: 30 µM; IC50 ([16]; ref 38, read-out: anticancer IC50 (HT-29)): 125 µM; IC50 [27]: 178 µM"
